In ChEMBL document CHEMBL1914389, “Steroidal C-21 mercapto derivatives as dissociated steroids: discovery of an inhaled dissociated steroid” (Bioorg Med Chem Lett, 2011):

Columns and labels:
Glucocorticoid receptor [1] = molecular target: T1, Glucocorticoid receptor (Homo sapiens, UniProt P04150); assay: Transrepression activity at glucocorticoid receptor in human H292 cells assessed as inhibition of TNF-stimulated IL-6 cytokine synthesis; type: cell-based
T1 sequence (P04150 whole entry): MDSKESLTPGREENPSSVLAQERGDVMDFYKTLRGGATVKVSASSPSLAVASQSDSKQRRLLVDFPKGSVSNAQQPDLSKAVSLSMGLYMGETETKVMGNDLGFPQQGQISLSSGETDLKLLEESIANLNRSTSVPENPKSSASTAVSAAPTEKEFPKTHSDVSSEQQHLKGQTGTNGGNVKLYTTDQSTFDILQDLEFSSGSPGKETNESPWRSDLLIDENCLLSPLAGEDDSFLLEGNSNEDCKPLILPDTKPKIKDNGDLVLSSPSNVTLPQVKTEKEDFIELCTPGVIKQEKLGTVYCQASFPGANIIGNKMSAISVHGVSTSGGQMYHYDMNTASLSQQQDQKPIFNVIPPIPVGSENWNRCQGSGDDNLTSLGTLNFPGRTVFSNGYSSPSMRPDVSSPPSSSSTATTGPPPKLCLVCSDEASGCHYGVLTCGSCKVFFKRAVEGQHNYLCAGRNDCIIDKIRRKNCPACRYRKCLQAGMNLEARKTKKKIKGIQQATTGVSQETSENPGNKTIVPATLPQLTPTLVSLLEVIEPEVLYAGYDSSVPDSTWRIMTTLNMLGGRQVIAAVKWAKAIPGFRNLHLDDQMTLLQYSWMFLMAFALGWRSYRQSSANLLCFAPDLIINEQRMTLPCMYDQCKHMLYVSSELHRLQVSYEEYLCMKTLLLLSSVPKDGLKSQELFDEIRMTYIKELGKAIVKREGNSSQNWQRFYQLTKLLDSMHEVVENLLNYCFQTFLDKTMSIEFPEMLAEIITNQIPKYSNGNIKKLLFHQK

[2] = molecular target: T2, Glucocorticoid receptor (Homo sapiens) (UniProt P04150); assay: Transactivation activity at glucocorticoid receptor in human HepG2 cells assessed as induction of tyrosine amino transferase at 1 uM relative to control; type: cell-based
T2 sequence (whole entry): T1 sequence (P04150 whole entry)

[3] = molecular target: T2, Glucocorticoid receptor (Homo sapiens); assay: Transrepression activity at glucocorticoid receptor in human H292 cells assessed as inhibition of TNF-stimulated IL-6 cytokine synthesis at 1 uM relative to control; type: cell-based
[4] = molecular target: T3, Glucocorticoid receptor (Rattus norvegicus) (UniProt P06536); assay: Transactivation activity at glucocorticoid receptor in rat H4II-E cells assessed as induction of tyrosine amino transferase at 1 uM relative to control; type: cell-based
T3 sequence (whole entry): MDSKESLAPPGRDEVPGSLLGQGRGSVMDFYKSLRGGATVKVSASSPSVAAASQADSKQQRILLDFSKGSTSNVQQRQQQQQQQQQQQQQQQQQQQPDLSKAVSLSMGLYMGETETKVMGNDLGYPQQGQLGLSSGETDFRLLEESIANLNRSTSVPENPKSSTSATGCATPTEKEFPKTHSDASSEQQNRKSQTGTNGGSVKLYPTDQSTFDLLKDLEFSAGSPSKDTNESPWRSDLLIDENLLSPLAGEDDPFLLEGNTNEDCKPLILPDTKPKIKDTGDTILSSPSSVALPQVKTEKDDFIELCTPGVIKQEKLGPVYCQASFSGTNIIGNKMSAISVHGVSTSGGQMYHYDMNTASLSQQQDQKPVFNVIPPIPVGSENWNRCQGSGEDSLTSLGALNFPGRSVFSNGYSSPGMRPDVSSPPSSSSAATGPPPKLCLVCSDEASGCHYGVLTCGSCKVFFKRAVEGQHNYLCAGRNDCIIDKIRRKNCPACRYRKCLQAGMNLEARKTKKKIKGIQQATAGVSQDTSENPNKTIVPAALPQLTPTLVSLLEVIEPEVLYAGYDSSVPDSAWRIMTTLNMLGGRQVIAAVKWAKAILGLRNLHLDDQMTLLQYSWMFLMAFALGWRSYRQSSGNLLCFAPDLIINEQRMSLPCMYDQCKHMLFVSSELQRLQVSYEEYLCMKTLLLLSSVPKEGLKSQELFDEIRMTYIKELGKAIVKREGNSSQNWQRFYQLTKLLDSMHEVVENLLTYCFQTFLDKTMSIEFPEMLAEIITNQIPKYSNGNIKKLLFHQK

Glucocorticoid receptor [5] = molecular target: T1, Glucocorticoid receptor; assay: Inhibition of human glucocorticoid receptor
[6] = molecular target: T2, Glucocorticoid receptor (Homo sapiens); assay: Transactivation activity at glucocorticoid receptor in human HepG2 cells expressing luciferase-taggged GRE gene at 1 uM by luciferase reporter gene assay relative to control; type: cell-based
Glucocorticoid receptor [7] = molecular target: T4, Glucocorticoid receptor (Rattus norvegicus, UniProt P06536); assay: Transactivation activity at glucocorticoid receptor in rat H4II-E cells assessed as induction of tyrosine amino transferase; type: cell-based
T4 sequence (P06536 whole entry): T3 sequence (whole entry)

Glucocorticoid receptor [8] = molecular target: T1, Glucocorticoid receptor; assay: Transactivation activity at glucocorticoid receptor in human HepG2 cells expressing luciferase-taggged GRE gene by luciferase reporter gene assay; type: cell-based
Glucocorticoid receptor [9] = molecular target: T1, Glucocorticoid receptor; assay: Transactivation activity at glucocorticoid receptor in human HepG2 cells assessed as induction of tyrosine amino transferase; type: cell-based
[10] = Therapeutic index, ratio of ED20 for thymolysis to ED70 for forced vital capacity in ovalbumin-challenged Brown-Norway rat; type: organism-based; conditions: in vivo, read-out: TI
Rattus norvegicus [11] = assay: Induction of thymolysis in ovalbumin-challenged Brown-Norway rat at upto 730 ug/kg administered via nose inhalation; type: organism-based; conditions: in vivo, 0.73 mg/kg
Rattus norvegicus [12] = species on record: Rattus norvegicus; assay: Ratio of fluticasone propionate TI to compound TI in ovalbumin-challenged Brown-Norway rat
[13] = AUC in rat at 10 mg/kg, po; type: ADME, organism-based; set-up: dose 10 mg/kg, route oral; conditions: plasma
Rattus norvegicus [14] = assay: Toxicity in ip dosed Brown-Norway rat assessed as decrease in thymus weight administered for 3 days; type: organism-based; conditions: in vivo, 72 h
Rattus norvegicus [15] = assay: Antiinflammatory activity in allergen challenged Brown-Norway rat assessed as inhibition of total BAL cell administered via nose as dry powder; type: functional
Rattus norvegicus [16] = assay: Antiinflammatory activity in intratracheal insufflated allergen challenged Brown-Norway rat assessed as inhibition of inflammatory cell influx administered as single dose; type: functional; conditions: inhaled or nasal
Lung = assay: Drug uptake in lung of Brown-Norway rat; type: ADME, tissue-based; conditions: in vivo
Rattus norvegicus [17] = assay: Toxicity in ip dosed Brown-Norway rat assessed as decrease in adrenal weight administered for 3 days; type: organism-based; conditions: in vivo, 72 h
Rattus norvegicus [18] = assay: Toxicity in ip dosed Brown-Norway rat assessed as decrease in body weight administered for 3 days; type: organism-based; conditions: in vivo, 72 h

| SMILES | IC50 (Glucocorticoid receptor [1]) | Emax [2] | Emax [3] | Emax [4] | IC50 (Glucocorticoid receptor [5]) | Emax [6] | EC50 (Glucocorticoid receptor [8]) | other results |
| --- | --- | --- | --- | --- | --- | --- | --- | --- |
| C[C@]12CCC(=O)C=C1CC[C@@H]1[C@@H]2[C@@H](O)C[C@@]2(C)[C@H]1CC[C@]2(OC(=O)c1ccco1)C(=O)CSc1cnc2ccccc2n1 | 1.4 nM | 41% | 98% | 9% | – | – | – | – |
| Cc1nc(SCC(=O)[C@@]2(OC(=O)c3ccco3)CC[C@H]3[C@@H]4CCC5=CC(=O)CC[C@]5(C)[C@H]4[C@@H](O)C[C@@]32C)sc1C | 0.9 nM | 57% | 100% | 12% | – | – | – | EC50 (Glucocorticoid receptor [9]): 22.4 nM |
| C[C@]12CCC(=O)C=C1CC[C@@H]1[C@@H]2[C@@H](O)C[C@@]2(C)[C@H]1CC[C@]2(OC(=O)c1ccco1)C(=O)CSc1nc2ccccc2o1 | 2.2 nM | 53% | 97% | 9% | – | – | – | EC50 (Glucocorticoid receptor [9]): 55.6 nM |
| C[C@]12CCC(=O)C=C1CC[C@@H]1[C@@H]2[C@@H](O)C[C@@]2(C)[C@H]1CC[C@]2(OC(=O)c1ccco1)C(=O)CSc1nccc2ccccc12 | 15.9 nM | 33% | 86% | 4% | – | – | – | – |
| CCC(=O)OCC(=O)[C@@]1(OC(=O)CC)[C@@H](C)C[C@H]2[C@@H]3CCC4=CC(=O)C=C[C@]4(C)[C@@]3(Cl)[C@@H](O)C[C@@]21C [BECLOMETHASONE DIPROPIONATE] | – | – | – | – | – | – | – | selectivity ratio [10]: 1 |
| C[C@]12CCC(=O)C=C1CC[C@H]1[C@@H]3CC[C@](O)(C(=O)CSc4nc5ccccc5s4)[C@@]3(C)C[C@H](O)[C@@]12F | 18.8 nM | – | 95% | 21% | 4.6 nM | 63% | 535 nM | – |
| C[C@]12CCC(=O)C=C1CC[C@@H]1[C@@H]2[C@@H](O)C[C@@]2(C)[C@H]1CC[C@]2(OC(=O)c1ccco1)C(=O)CSc1ccc2ccccc2n1 | 2.85 nM | 22% | 96% | 11% | – | – | – | – |
| CCCC1O[C@@H]2C[C@H]3[C@@H]4CCC5=CC(=O)C=C[C@]5(C)[C@H]4[C@@H](O)C[C@]3(C)[C@]2(C(=O)CO)O1 (some centres not stated) [BUDESONIDE] | – | – | – | – | – | – | – | selectivity ratio [10]: 1 |
| Cn1c(SCC(=O)[C@@]2(OC(=O)c3ccco3)CC[C@H]3[C@@H]4CCC5=CC(=O)CC[C@]5(C)[C@H]4[C@@H](O)C[C@@]32C)nc2ccccc21 | 3.7 nM | 39% | 98% | 17% | – | – | – | – |
| C[C@]12CCC(=O)C=C1CC[C@@H]1[C@@H]2[C@@H](O)C[C@@]2(C)[C@H]1CC[C@]2(OC(=O)c1ccco1)C(=O)CSc1ncccn1 | 9.7 nM | 35% | 94% | 7% | – | – | – | – |
| C[C@]12CCC(=O)C=C1CC[C@@H]1[C@@H]2[C@@H](O)C[C@@]2(C)[C@H]1CC[C@]2(O)C(=O)CSc1nc2ccccc2s1 | 36 nM | 5% | 97% | 0% | 4.8 nM | 30% | – | ED50 (Rattus norvegicus [14]): > 100 mg/kg; inhibition (INH) (Rattus norvegicus [15]): 27%; ED50 (Rattus norvegicus [16]): 0.42 mg/kg; Drug uptake (Lung): 85 µg/kg; ED50 (Rattus norvegicus [17]): > 100 mg/kg; ED50 (Rattus norvegicus [18]): > 100 mg/kg |
| C[C@@H]1C[C@H]2[C@@H]3CCC4=CC(=O)C=C[C@]4(C)[C@@]3(F)[C@@H](O)C[C@]2(C)[C@@]1(O)C(=O)CSc1nc2ccccc2s1 | 4.4 nM | – | 98% | 33% | 18 nM | 68% | 45.5 nM | – |

Now from value to molecule, other results behind:

| IC50 (Glucocorticoid receptor [1]) | Emax [2] | Emax [3] | Emax [4] | IC50 (Glucocorticoid receptor [5]) | Emax [6] | EC50 (Glucocorticoid receptor [8]) | SMILES | other results |
| --- | --- | --- | --- | --- | --- | --- | --- | --- |
| 1.9 nM | – | 100% | 79% | 13 nM | 66% | 17 nM | C[C@@H]1C[C@H]2[C@@H]3C[C@H](F)C4=CC(=O)C=C[C@]4(C)[C@@]3(F)[C@@H](O)C[C@]2(C)[C@@]1(O)C(=O)CSc1nc2ccccc2s1 | EC50 (Glucocorticoid receptor [7]): 27 nM |
| 4.95 nM | – | 88% | 29% | 17 nM | 60% | 50 nM | C[C@@H]1C[C@H]2[C@@H]3CCC4=CC(=O)C=C[C@]4(C)[C@@]3(Cl)[C@@H](O)C[C@]2(C)[C@@]1(O)C(=O)CSc1nc2ccccc2s1 | – |
| 2.1 nM | 43% | 98% | 24% | – | 97% | 13.3 nM | Cc1ccnc(SCC(=O)[C@@]2(OC(=O)c3ccco3)CC[C@H]3[C@@H]4CCC5=CC(=O)C=C[C@]5(C)[C@H]4[C@@H](O)C[C@@]32C)n1 | – |
| 35 nM | – | 78% | 19% | 3.8 nM | 29% | – | C[C@]12C=CC(=O)C=C1CC[C@@H]1[C@@H]2[C@@H](O)C[C@@]2(C)[C@H]1CC[C@]2(O)C(=O)CSc1nc2ccccc2s1 | – |
| 39.1 nM | – | 95% | 34% | 18 nM | 55% | 295 nM | C[C@H]1C[C@@H]2[C@H]([C@@H](O)C[C@@]3(C)[C@H]2CC[C@]3(O)C(=O)CSc2nc3ccccc3s2)[C@@]2(C)C=CC(=O)C=C12 | – |
| 2 nM | 5% | 100% | 2% | – | – | – | C[C@]12CCC(=O)C=C1CC[C@@H]1[C@@H]2[C@@H](O)C[C@@]2(C)[C@H]1CC[C@]2(OC(=O)c1ccco1)C(=O)CSc1nc2ccccc2s1 | Activity (Rattus norvegicus [11]): >= 20%; Ratio (Rattus norvegicus [12]): 10; AUC [13]: 7 ng·h/mL; selectivity ratio [10]: > 15 |
| 2.1 nM | 24% | 96% | 32% | – | 73% | 17.3 nM | C[C@]12C=CC(=O)C=C1CC[C@@H]1[C@@H]2[C@@H](O)C[C@@]2(C)[C@H]1CC[C@]2(OC(=O)c1ccco1)C(=O)CSc1nccc2ccccc12 | – |
| 0.75 nM | 43% | 99% | 62% | – | 93% | 14.1 nM | C[C@]12C=CC(=O)C=C1CC[C@@H]1[C@@H]2[C@@H](O)C[C@@]2(C)[C@H]1CC[C@]2(OC(=O)c1ccco1)C(=O)CSc1nc2ccccc2s1 | EC50 (Glucocorticoid receptor [9]): 50.8 nM; EC50 (Glucocorticoid receptor [7]): 18.7 nM |
| 14.3 nM | 15% | 94% | 2% | – | – | – | C[C@]12CCC(=O)C=C1CC[C@@H]1[C@@H]2[C@@H](O)C[C@@]2(C)[C@H]1CC[C@]2(OC(=O)c1ccco1)C(=O)CSc1nc2ncccc2s1 | – |
